For 1 compound, EC50, Ka and Kd results are on record in publication doi:10.1101/435867v2 (biorxiv, 2018).

The target of assay [1] is T1, GLO1 in PC12 cells (Rattus norvegicus, UniProt Q6P7Q4).
T1 sequence (Q6P7Q4 2-184): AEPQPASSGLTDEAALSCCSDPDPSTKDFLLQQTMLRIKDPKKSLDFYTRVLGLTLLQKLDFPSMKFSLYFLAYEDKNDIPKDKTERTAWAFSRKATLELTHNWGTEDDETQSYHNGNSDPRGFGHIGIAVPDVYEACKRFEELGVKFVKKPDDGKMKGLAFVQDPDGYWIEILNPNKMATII
Description: cellular thermal shift assay. To be noted: half-maximal thermal stabilization. Format: cell-based.

Assay [2] deals with T2, GLO1 (Homo sapiens, UniProt Q04760).
T2 sequence (Q04760 2-184): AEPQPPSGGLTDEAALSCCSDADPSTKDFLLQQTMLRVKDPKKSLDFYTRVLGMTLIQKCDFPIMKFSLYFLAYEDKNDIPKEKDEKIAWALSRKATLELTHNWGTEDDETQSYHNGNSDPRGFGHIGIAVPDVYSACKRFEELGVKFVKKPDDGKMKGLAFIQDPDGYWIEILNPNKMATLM
Description: fluorescence spectroscopy. Format: binding. The settings on record: 298 K, 5 μM GLO1.

For assay [3], the target named is T2, GLO1. Description: fluorescence spectroscopy. Format: binding.

Broadly, the EC50 is the concentration needed to bring the measured effect to its halfway point. One may read the Kd as the concentration at which binding is half-saturated. High values mean a looser complex, low ones a tighter complex.

On to `O=c1cc(-c2ccc(O)c(O)c2)oc2cc(O)cc(O)c12` [luteolin], for which the EC50 in assay [1] worked out at 45.2 µM. Moreover, the Ka in assay [2] was 21200 L/mol. This compound came in with a Kd in assay [3] of 47.2 µM.
